The values below come from patent US9981964B2 (Agency for Science, Technology and Research, priority 2013, dated 2018).

This assay relates to HEK293-STF3A cells. Description: STF3A assay (STF luciferase reporter in Wnt3A-expressing HEK293 cells). Format: cell-based. To be noted: Homo sapiens, 24 h, 1 day of treatment. The text has this:
HEK293-STF cell line was modified from Human embryonic kidney cell line HEK293 transfected with the STF reporter. HEK293-STF3A cell line was further modified from HEK293-STF cell line to express Wnt3A. This cell line was used to identify compounds that regulate either early or late signaling components of the Wnt pathway. These two cell lines were obtained from David Virshup's laboratory, Duke-NUS. L-Wnt3A (ATCC, #CRL-2647) cell line was used for providing Wnt3A conditioned media. The three cell lines were grown in DMEM with 10% FBS incubated in 37° C. with 5% CO2.
2×10^4 HEK293-STF3A cells in 75 μl culture media were seeded in each well of white 96 well plates (Greiner #655098) and incubated overnight at 37° C. 25 μl serially diluted compound was added to the cells to give final concentration of 50 μM to 1.5 nM. After 1 day of treatment, 100 μl of Steady-Glo Luciferase Assay reagent (#E2520, Promega) was added to each well and incubated for 10 minutes at room temperature. Luminescence was measured using Tecan Safire2 plate reader.

In turn, `C[C@@H](C(=O)Nc1ccc(-c2cccnc2)cn1)N1CCCC2=C1C(=O)N(C)C2=O` (single isomer, unassigned) [Compound 92] yielded an IC50 of under 100 nM.
Then `C[C@H](C(=O)Nc1ccc(-c2cccnc2)cn1)N1CCCC2=C1C(=O)N(C)C2=O` (single isomer, unassigned) [Compound 93], with under 1000 nM.
As to `C[C@@H](C(=O)Nc1ccc(-c2ccccc2)nn1)N1CCCC2=C1C(=O)N(C)C2=O` (single isomer, unassigned) [Compound 94], the IC50 is under 100 nM.
The figure for `C[C@H](C(=O)Nc1ccc(-c2ccccc2)nn1)N1CCCC2=C1C(=O)N(C)C2=O` (single isomer, unassigned) [Compound 95] is over 10000 nM.
For the compound `C[C@@H](C(=O)Nc1ccc(-c2cccnc2)nc1)N1CCCC2=C1C(=O)N(C)C2=O` (single isomer, unassigned) [Compound 116], the IC50 is under 100 nM.
The figure for `C[C@H](C(=O)Nc1ccc(-c2cccnc2)nc1)N1CCCC2=C1C(=O)N(C)C2=O` (single isomer, unassigned) [Compound 117] is under 1000 nM.
The figure for `CN1C(=O)C2=C(C1=O)N(CC(=O)Nc1ccc(-c3ccccn3)cn1)CCC2` [Compound 1, N-([2,3′-bipyridin]-6′-yl)-2-(6-methyl-5,7-dioxo-2,3,4,5,6,7-hexahydro-1H-pyrrolo[3,4-b]pyridin-1-yl)acetamide] is under 100 nM; for `CN1C(=O)C2=C(C1=O)N(CC(=O)Nc1ccc(-c3nccs3)cc1)CCC2` [Compound 2, 2-(6-methyl-5,7-dioxo-2,3,4,5,6,7-hexahydro-1H-pyrrolo[3,4-b]pyridin-1-yl)-N-(4-(thiazol-2-yl)phenyl)acetamide] it is under 100 nM.
Then `CN1C(=O)C2=C(C1=O)N(CC(=O)Nc1ccc(-c3ccccc3)nn1)CCC2` [Compound 3, 2-(6-methyl-5,7-dioxo-2,3,4,5,6,7-hexahydro-1H-pyrrolo[3,4-b]pyridin-1-yl)-N-(6-phenylpyridazin-3-yl)acetamide], with under 100 nM; and `CN1C(=O)C2=C(C1=O)N(CC(=O)Nc1ccc(-c3ccc(F)cc3)nn1)CCC2` [Compound 4, N-(6-(4-fluorophenyl)pyridazin-3-yl)-2-(6-methyl-5,7-dioxo-2,3,4,5,6,7-hexahydro-1H-pyrrolo[3,4-b]pyridin-1-yl)acetamide], with under 100 nM.
`CN1C(=O)C2=C(C1=O)N(CC(=O)Nc1ccc(-c3ccccc3)cn1)CCC2` [Compound 5, 2-(6-methyl-5,7-dioxo-2,3,4,5,6,7-hexahydro-1H-pyrrolo[3,4-b]pyridin-1-yl)-N-(5-phenylpyridin-2-yl)acetamide] came in with an IC50 of under 100 nM.
Then `CN1C(=O)C2=C(C1=O)N(CC(=O)Nc1ccc(-c3nccs3)cn1)CCC2` [Compound 6, 2-(6-methyl-5,7-dioxo-2,3,4,5,6,7-hexahydro-1H-pyrrolo[3,4-b]pyridin-1-yl)-N-(5-(thiazol-2-yl)pyridin-2-yl)acetamide], with under 100 nM; and `CN1C(=O)C2=C(C1=O)N(CC(=O)Nc1ccc(-c3ccc(F)cc3)cn1)CCC2` [Compound 7, N-(5-(4-fluorophenyl)pyridin-2-yl)-2-(6-methyl-5,7-dioxo-2,3,4,5,6,7-hexahydro-1H-pyrrolo[3,4-b]pyridin-1-yl)acetamide], with under 100 nM; and `CN1C(=O)C2=C(C1=O)N(CC(=O)Nc1ccc(-c3cccnc3)cn1)CCC2` [Compound 8, N-([3,3′-bipyridin]-6-yl)-2-(6-methyl-5,7-dioxo-2,3,4,5,6,7-hexahydro-1H-pyrrolo[3,4-b]pyridin-1-yl)acetamide], with under 100 nM.
The compound `CN1C(=O)C2=C(C1=O)N(CC(=O)Nc1ccc(-c3cccnc3)nc1)CCC2` [Compound 10, N-([2,3′-bipyridin]-5-yl)-2-(6-methyl-5,7-dioxo-2,3,4,5,6,7-hexahydro-1H-pyrrolo[3,4-b]pyridin-1-yl)acetamide] came in with an IC50 of under 100 nM.
Compound `CC(C(=O)Nc1ccc(-c2cccnc2)cn1)N1CCCC2=C1C(=O)N(C)C2=O` (stereo not drawn) [Compound 11, N-([3,3′-bipyridin]-6-yl)-2-(6-methyl-5,7-dioxo-2,3,4,5,6,7-hexahydro-1H-pyrrolo[3,4-b]pyridin-1-yl)propanamide] came in with an IC50 of under 100 nM.
Then `CN1C(=O)C2=C(C1=O)N(CC(=O)Nc1cnc(-c3ccccc3)cn1)CCC2` [Compound 12, 2-(6-methyl-5,7-dioxo-2,3,4,5,6,7-hexahydro-1H-pyrrolo[3,4-b]pyridin-1-yl)-N-(5-phenylpyrazin-2-yl)acetamide], with under 100 nM.
Then `CC(C(=O)Nc1ccc(-c2ccccc2)nn1)N1CCCC2=C1C(=O)N(C)C2=O` (stereo not drawn) [Compound 13, 2-(6-methyl-5,7-dioxo-2,3,4,5,6,7-hexahydro-1H-pyrrolo[3,4-b]pyridin-1-yl)-N-(6-phenylpyridazin-3-yl)propanamide], with under 100 nM.
Then `Cc1nc(-c2ccc(NC(=O)CN3CCCC4=C3C(=O)N(C3CC3)C4=O)nc2)cs1` [Compound 15, 2-(6-cyclopropyl-5,7-dioxo-2,3,4,5,6,7-hexahydro-1H-pyrrolo[3,4-b]pyridin-1-yl)-N-(5-(2-methylthiazol-4-yl)pyridin-2-yl)acetamide], with under 100 nM; and `O=C(CN1CCCC2=C1C(=O)N(C1CC1)C2=O)Nc1ccc(-c2ccccn2)cn1` [Compound 16, N-([2,3′-bipyridin]-6′-yl)-2-(6-cyclopropyl-5,7-dioxo-2,3,4,5,6,7-hexahydro-1H-pyrrolo[3,4-b]pyridin-1-yl)acetamide], with under 100 nM.
As for `CC(C(=O)Nc1ccc(-c2ccccn2)cn1)N1CCCC2=C1C(=O)N(C)C2=O` (stereo not drawn) [Compound 17, N-([2,3′-bipyridin]-6′-yl)-2-(6-methyl-5,7-dioxo-2,3,4,5,6,7-hexahydro-1H-pyrrolo[3,4-b]pyridin-1-yl)propanamide], the IC50 was under 100 nM.
Then `CC(C(=O)Nc1cc(-c2cccc(Cl)c2)no1)N1CCCC2=C1C(=O)N(C)C2=O` (stereo not drawn) [Compound 18, N-(3-(3-chlorophenyl)isoxazol-5-yl)-2-(6-methyl-5,7-dioxo-2,3,4,5,6,7-hexahydro-1H-pyrrolo[3,4-b]pyridin-1-yl)propanamide], with under 5000 nM; and `CC(C(=O)Nc1cnc(-c2ccccc2)cn1)N1CCCC2=C1C(=O)N(C)C2=O` (stereo not drawn) [Compound 19, 2-(6-methyl-5,7-dioxo-2,3,4,5,6,7-hexahydro-1H-pyrrolo[3,4-b]pyridin-1-yl)-N-(5-phenylpyrazin-2-yl)propanamide], with under 100 nM; and `CC(C(=O)Nc1ccc(-c2cccnc2)nc1)N1CCCC2=C1C(=O)N(C)C2=O` (stereo not drawn) [Compound 20, N-([2,3′-bipyridin]-5-yl)-2-(6-methyl-5,7-dioxo-2,3,4,5,6,7-hexahydro-1H-pyrrolo[3,4-b]pyridin-1-yl)propanamide], with under 100 nM.
Then `CN1C(=O)C2=C(C1=O)N(CC(=O)Nc1cnc(-c3cccnc3)cn1)CCC2` [Compound 21, 2-(6-methyl-5,7-dioxo-2,3,4,5,6,7-hexahydro-1H-pyrrolo[3,4-b]pyridin-1-yl)-N-(5-(pyridin-3-yl)pyrazin-2-yl)acetamide], with under 100 nM; and `CN1C(=O)C2=C(C1=O)N(CC(=O)Nc1cnc(-c3ccncc3)cn1)CCC2` [Compound 22, 2-(6-methyl-5,7-dioxo-2,3,4,5,6,7-hexahydro-1H-pyrrolo[3,4-b]pyridin-1-yl)-N-(5-(pyridin-4-yl)pyrazin-2-yl)acetamide], with over 10000 nM.
Turning to `CC(C(=O)Nc1cnc(-c2cccnc2)cn1)N1CCCC2=C1C(=O)N(C)C2=O` (stereo not drawn) [Compound 23, 2-(6-methyl-5,7-dioxo-2,3,4,5,6,7-hexahydro-1H-pyrrolo[3,4-b]pyridin-1-yl)-N-(5-(pyridin-3-yl)pyrazin-2-yl)propanamide], the IC50 is under 100 nM.
Then `Cc1ccc(-c2ccc(NC(=O)CN3CCCC4=C3C(=O)N(C)C4=O)cn2)cn1` [Compound 24, 2-(6-methyl-5,7-dioxo-2,3,4,5,6,7-hexahydro-1H-pyrrolo[3,4-b]pyridin-1-yl)-N-(6′-methyl-[2,3′-bipyridin]-5-yl)acetamide], with under 100 nM; and `CN1C(=O)C2=C(C1=O)N(CC(=O)Nc1ccc(-c3cccnc3)nn1)CCC2` [Compound 25, 2-(6-methyl-5,7-dioxo-2,3,4,5,6,7-hexahydro-1H-pyrrolo[3,4-b]pyridin-1-yl)-N-(6-(pyridin-3-yl)pyridazin-3-yl)acetamide], with under 100 nM; and `O=C(CN1CCCC2=C1C(=O)N(C1CC1)C2=O)Nc1cnc(-c2cccnc2)cn1` [Compound 26, 2-(6-cyclopropyl-5,7-dioxo-2,3,4,5,6,7-hexahydro-1H-pyrrolo[3,4-b]pyridin-1-yl)-N-(5-(pyridin-3-yl)pyrazin-2-yl)acetamide], with under 100 nM.
The figure for `Cc1ccccc1-c1ccc(NC(=O)CN2CCCC3=C2C(=O)N(C)C3=O)nn1` [Compound 27, 2-(6-methyl-5,7-dioxo-2,3,4,5,6,7-hexahydro-1H-pyrrolo[3,4-b]pyridin-1-yl)-N-(6-(o-tolyl)pyridazin-3-yl)acetamide] is under 1000 nM; for `COc1ccccc1-c1ccc(NC(=O)CN2CCCC3=C2C(=O)N(C)C3=O)nn1` [Compound 28, N-(6-(2-methoxyphenyl)pyridazin-3-yl)-2-(6-methyl-5,7-dioxo-2,3,4,5,6,7-hexahydro-1H-pyrrolo[3,4-b]pyridin-1-yl)acetamide] it is over 10000 nM.
Then `Cc1cccc(-c2ccc(NC(=O)CN3CCCC4=C3C(=O)N(C)C4=O)nn2)c1` [Compound 29, 2-(6-methyl-5,7-dioxo-2,3,4,5,6,7-hexahydro-1H-pyrrolo[3,4-b]pyridin-1-yl)-N-(6-(m-tolyl)pyridazin-3-yl)acetamide], with under 100 nM.
